Measurements: US20250129070A1, “BIFUNCTIONAL ANDROGEN RECEPTOR COMPOUNDS” (priority 2023, published 2025)

What was measured:
Assay type in all cases: cell-based
HEK-293 cells = experiment: HEK-293 growth inhibition assay; conditions: 3 days, CTG
Description: Cluster plates are returned to the incubator (37*C/5% CO2) for 24 hours prior to treatment. […] Cluster plates are returned to the incubator for 3 days.
After the 3-day treatment period, 100 uL media was removed from each well by aspiration and 100 uL room temperature CTG reagent (Promega Cat #G7573) is added back to each well. The cluster plates are placed on a shaker and incubated at room temperature for 20 minutes. Following this shaking/incubation, cluster plates are read on a luminometer (BMG ClarioStar). IC50 values are obtained by graphing the RLU data vs. compound concentration with nonlinear regression 4-parameter logistic curves (GraphPad Prism).

AR / CBP ternary complex = experiment: Ternary complex formation assay (sandwich ELISA, AR capture / CBP detection) in VCaP cell lysates; conditions: 1.5 hours treatment, sandwich ELISA (AR capture, CBP or p300 detection)
Outline: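 VCaP cells (50K/well, 5% charcoal-stripped FBS, ≥3 days) treated with bifunctional compound for 1.5 h, then lysed 30 min at 4 °C. AR captured on anti-AR (AR 441) plates; bound CBP or p300 detected by rabbit mAb plus HRP secondary. QuantaRed chemifluorescence read at ex 570/em 585, immediately and at 5 and 15 min.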

VCaP cells = experiment: VCaP growth inhibition assay; conditions: 30 pM R1881, 9 days, CTG
Outline: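 VCaP cells in phenol red-free DMEM/5% CSS, pre-incubated 72 h, then stimulated with R1881 (final 30 pM) and treated with 1:5 serial dilutions (final 100 nM to 10 fM) for 9 days at 37 °C. Viability by CellTiter-Glo luminescence; IC50 from 4-parameter logistic fit of RLU vs concentration.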

SMILES	IC50 (HEK-293 cells) [nM]	EC50 (AR / CBP ternary complex) [nM]	IC50 (VCaP cells) [nM]
CC(=O)N1CCc2c(c(-c3cccc4cc(-c5cnc(CCN(C)c6ncc(C(=O)NC7C(C)(C)C(Oc8ccc(C#N)c(Cl)c8)C7(C)C)cn6)nc5)ncc34)nn2C2CCOCC2)C1 (stereo not shown) [Compound 74, 2-[2-[5-[8-(5-acetyl-1-tetrahydropyran-4-yl-6,7-dihydro-4H-pyrazolo[4,3-c]pyridin-3-yl)-3-isoquinolyl]pyrimidin-2-yl]ethyl-methyl-amino]-N-[3-(3-chloro-4-cyano-phenoxy)-2,2,4,4-tetramethyl-cyclobutyl]pyrimidine-5-carboxamide]	> 10000	< 1	1 to 100
CNC(=O)N1CCc2c(c(N3CCCc4cc(-c5cnn(C)c5)c(C(F)F)cc43)nn2C2CCN(C(=O)COCCOCCN3CCN(c4ncc(C(=O)NC5C(C)(C)C(Oc6ccc(C#N)c(Cl)c6)C5(C)C)cn4)CC3)CC2)C1 (stereo not shown) [Compound 103, 1-[1-[2-[2-[2-[4-[5-[[3-(3-chloro-4-cyano-phenoxy)-2,2,4,4-tetramethyl-cyclobutyl]carbamoyl]pyrimidin-2-yl]piperazin-1-yl]ethoxy]ethoxy]acetyl]-4-piperidyl]-3-[7-(difluoromethyl)-6-(1-methylpyrazol-4-yl)-3,4-dihydro-2H-quinolin-1-yl]-N-methyl-6,7-dihydro-4H-pyrazolo[4,3-c]pyridine-5-carboxamide]	> 10000	< 1	0.1 to 1
CC(=O)N1CCc2c(c(N3CCCc4cc(-c5cnn(C)c5)c(C(F)F)cc43)nn2C2CCN(CC3C(C)CN(c4ncc(C(=O)NC5C(C)(C)C(Oc6ccc(C#N)c(Cl)c6)C5(C)C)cn4)CC3C)CC2)C1 (stereo not shown) [Compound 350, 2-[4-[[4-[5-acetyl-3-[7-(difluoromethyl)-6-(1-methylpyrazol-4-yl)-3,4-dihydro-2H-quinolin-1-yl]-6,7-dihydro-4H-pyrazolo[4,3-c]pyridin-1-yl]-1-piperidyl]methyl]-3,5-dimethyl-1-piperidyl]-N-[3-(3-chloro-4-cyano-phenoxy)-2,2,4,4-tetramethyl-cyclobutyl]pyrimidine-5-carboxamide]	> 1000	< 1	≤ 0.1
CC(=O)N1CCc2c(c(-c3cccc4cc(-c5ccc(C(=O)NCC6CCN(c7ncc(C(=O)NC8C(C)(C)C(Oc9ccc(C#N)c(Cl)c9)C8(C)C)cn7)CC6)nc5)ncc34)nn2C2CCOCC2)C1 (stereo not shown) [Compound 110, 2-[4-[[[5-[8-(5-acetyl-1-tetrahydropyran-4-yl-6,7-dihydro-4H-pyrazolo[4,3-c]pyridin-3-yl)-3-isoquinolyl]pyridine-2-carbonyl]amino]methyl]-1-piperidyl]-N-[3-(3-chloro-4-cyano-phenoxy)-2,2,4,4-tetramethyl-cyclobutyl]pyrimidine-5-carboxamide]	> 10000		≤ 0.1
CC(=O)N1CCc2c(c(N3CCCc4cc(-c5cnn(C)c5)c(C)cc43)nn2C2CCN(CC3CCN(c4ncc(C(=O)NC5C(C)(C)C(Oc6ccc(C#N)c(C)c6)C5(C)C)cn4)CC3(C)C)CC2)C1 (stereo not shown) [Compound 466, 2-[4-[[4-[5-acetyl-3-[7-methyl-6-(1-methylpyrazol-4-yl)-3,4-dihydro-2H-quinolin-1-yl]-6,7-dihydro-4H-pyrazolo[4,3-c]pyridin-1-yl]-1-piperidyl]methyl]-3,3-dimethyl-1-piperidyl]-N-[3-(4-cyano-3-methyl-phenoxy)-2,2,4,4-tetramethyl-cyclobutyl]pyrimidine-5-carboxamide]		< 1	0.1 to 1
CC(=O)N1CCc2c(c(N3CCCc4cc(-c5cnn(C)c5)c(C(F)F)cc43)nn2C2CCN(C3CCC4(CC3)CN(c3ncc(C(=O)NC5C(C)(C)C(Oc6ccc(C#N)c(Cl)c6)C5(C)C)cn3)C4)CC2)C1 (stereo not shown) [Compound 274, 2-[7-[4-[5-acetyl-3-[7-(difluoromethyl)-6-(1-methylpyrazol-4-yl)-3,4-dihydro-2H-quinolin-1-yl]-6,7-dihydro-4H-pyrazolo[4,3-c]pyridin-1-yl]-1-piperidyl]-2-azaspiro[3.5]nonan-2-yl]-N-[3-(3-chloro-4-cyano-phenoxy)-2,2,4,4-tetramethyl-cyclobutyl]pyrimidine-5-carboxamide]		< 1	≤ 0.1
COc1cc(OC2C(C)(C)C(NC(=O)c3ccc(N4CC(OC5CCC(n6nc(N7CCCc8cc(-c9cnn(C)c9)c(C(F)F)cc87)c7c6CCN(C(C)=O)C7)CC5)C4)cc3)C2(C)C)ccc1C#N (stereo not shown) [Compound 343, 4-[3-[4-[5-acetyl-3-[7-(difluoromethyl)-6-(1-methylpyrazol-4-yl)-3,4-dihydro-2H-quinolin-1-yl]-6,7-dihydro-4H-pyrazolo[4,3-c]pyridin-1-yl]cyclohexoxy]azetidin-1-yl]-N-[3-(4-cyano-3-methoxy-phenoxy)-2,2,4,4-tetramethyl-cyclobutyl]benzamide]		< 1	0.1 to 1
COc1cc(OC2C(C)(C)C(NC(=O)c3ccc(N4CCC(CN5CCC(n6nc(N7CCCc8cc(C#N)c(C(F)F)cc87)c7c6CCN(C(C)=O)C7)CC5)C(C)(C)C4)cc3)C2(C)C)ccc1C#N (stereo not shown) [Compound 451, 4-[4-[[4-[5-acetyl-3-[6-cyano-7-(difluoromethyl)-3,4-dihydro-2H-quinolin-1-yl]-6,7-dihydro-4H-pyrazolo[4,3-c]pyridin-1-yl]-1-piperidyl]methyl]-3,3-dimethyl-1-piperidyl]-N-[3-(4-cyano-3-methoxy-phenoxy)-2,2,4,4-tetramethyl-cyclobutyl]benzamide]		< 1	0.1 to 1
CC(=O)N1CCc2c(c(N3CCCc4cc(-c5cnn(C)c5)c(C(F)F)cc43)nn2C2CCN(CCc3ncc(C(=O)NC4C(C)(C)C(Oc5ccc(C#N)c(Cl)c5)C4(C)C)cn3)CC2)C1 (stereo not shown) [Compound 92, 2-[2-[4-[5-acetyl-3-[7-(difluoromethyl)-6-(1-methylpyrazol-4-yl)-3,4-dihydro-2H-quinolin-1-yl]-6,7-dihydro-4H-pyrazolo[4,3-c]pyridin-1-yl]-1-piperidyl]ethyl]-N-[3-(3-chloro-4-cyano-phenoxy)-2,2,4,4-tetramethyl-cyclobutyl]pyrimidine-5-carboxamide]		> 100	> 100
CC(=O)N1CCc2c(c(N3CCCc4cc(-c5cnn(C)c5)c(C(F)F)cc43)nn2C2CCN(C3CCN(c4ncc(C(=O)NC5C(C)(C)C(Oc6ccc(C#N)c(Cl)c6)C5(C)C)cn4)CC3)C2)C1 (stereo not shown) [Compound 12, 2-[4-[3-[5-acetyl-3-[7-(difluoromethyl)-6-(1-methylpyrazol-4-yl)-3,4-dihydro-2H-quinolin-1-yl]-6,7-dihydro-4H-pyrazolo[4,3-c]pyridin-1-yl]pyrrolidin-1-yl]-1-piperidyl]-N-[3-(3-chloro-4-cyano-phenoxy)-2,2,4,4-tetramethyl-cyclobutyl]pyrimidine-5-carboxamide]		1 to 10	1 to 100
COc1cc(OC2C(C)(C)C(NC(=O)c3ccc(N4CCC5(CC4)CC4(CC(n6nc(N7CCCc8cc(-c9cnn(C)c9)c(C(F)F)cc87)c7c6CCN(C(C)=O)C7)C4)C5)cc3)C2(C)C)ccc1C#N (stereo not shown) [Compound 286, 4-[2-[5-acetyl-3-[7-(difluoromethyl)-6-(1-methylpyrazol-4-yl)-3,4-dihydro-2H-quinolin-1-yl]-6,7-dihydro-4H-pyrazolo[4,3-c]pyridin-1-yl]-9-azadispiro[3.1.5^6.1^4]dodecan-9-yl]-N-[3-(4-cyano-3-methoxy-phenoxy)-2,2,4,4-tetramethyl-cyclobutyl]benzamide]		> 100	1 to 100
CC(=O)N1CCc2c(c(N3CCCc4cc(-c5cnn(C)c5)c(C(F)F)cc43)nn2C2CCN(C(=O)C3CCN(c4ccc(C(=O)NC5C(C)(C)C(Oc6ccc(C#N)c(Cl)c6)C5(C)C)nn4)CC3)CC2)C1 (stereo not shown) [Compound 114, 6-[4-[4-[5-acetyl-3-[7-(difluoromethyl)-6-(1-methylpyrazol-4-yl)-3,4-dihydro-2H-quinolin-1-yl]-6,7-dihydro-4H-pyrazolo[4,3-c]pyridin-1-yl]piperidine-1-carbonyl]-1-piperidyl]-N-[3-(3-chloro-4-cyano-phenoxy)-2,2,4,4-tetramethyl-cyclobutyl]pyridazine-3-carboxamide]		< 1	≤ 0.1
CC(=O)N1CCc2c(c(N3CCCc4ccccc43)nn2C2CCN(CC3CCN(c4ncc(C(=O)NC5C(C)(C)C(Oc6ccc(C#N)c(Cl)c6)C5(C)C)cn4)CC3)CC2)C1 (stereo not shown) [Compound 158, 2-[4-[[4-[5-acetyl-3-(3,4-dihydro-2H-quinolin-1-yl)-6,7-dihydro-4H-pyrazolo[4,3-c]pyridin-1-yl]-1-piperidyl]methyl]-1-piperidyl]-N-[3-(3-chloro-4-cyano-phenoxy)-2,2,4,4-tetramethyl-cyclobutyl]pyrimidine-5-carboxamide]		1 to 10	≤ 0.1
Cn1cc(-c2cc3c(cc2C(F)F)N(c2cc(C4CCN(CC5CCN(c6ncc(C(=O)NC7C(C)(C)C(Oc8ccc(C#N)c(Cl)c8)C7(C)C)cn6)CC5)CC4)c4c(c2)n(C)c(=O)n4C)CCC3)cn1 (stereo not shown) [Compound 214, N-[3-(3-chloro-4-cyano-phenoxy)-2,2,4,4-tetramethyl-cyclobutyl]-2-[4-[[4-[6-[7-(difluoromethyl)-6-(1-methylpyrazol-4-yl)-3,4-dihydro-2H-quinolin-1-yl]-1,3-dimethyl-2-oxo-benzimidazol-4-yl]-1-piperidyl]methyl]-1-piperidyl]pyrimidine-5-carboxamide]		< 1	1 to 100
